Laboratory results: patent US8124788B2, “Spirocyclic cyclohexane compounds with analgesic activity” (Gruenenthal GmbH, priority 2006, dated 2012)
Where a name gives a salt, the structure may show the parent alone.

Experiments:
human μ opiate receptor = target: T1, human μ opiate receptor (Homo sapiens, UniProt P35372); assay: Affinity for the human μ opiate receptor ([3H]-naloxone displacement, CHO-K1 membrane preparation, SPA); type: binding; details: for inhibition at 1 µM: 1 μM test substance, displacement of [3H]-naloxone, read-out: μ opioid receptor [1 μM], % inhibition; for Ki: Cheng-Prusoff conversion from IC50, read-out: μ opioid receptor, Ki
T1 construct: purchased PerkinElmer Life Sciences, Zaventem, Belgium RB-HOM; host or cells: CHO-K1 cells (recombinant expression)
T1 sequence (P35372 whole entry): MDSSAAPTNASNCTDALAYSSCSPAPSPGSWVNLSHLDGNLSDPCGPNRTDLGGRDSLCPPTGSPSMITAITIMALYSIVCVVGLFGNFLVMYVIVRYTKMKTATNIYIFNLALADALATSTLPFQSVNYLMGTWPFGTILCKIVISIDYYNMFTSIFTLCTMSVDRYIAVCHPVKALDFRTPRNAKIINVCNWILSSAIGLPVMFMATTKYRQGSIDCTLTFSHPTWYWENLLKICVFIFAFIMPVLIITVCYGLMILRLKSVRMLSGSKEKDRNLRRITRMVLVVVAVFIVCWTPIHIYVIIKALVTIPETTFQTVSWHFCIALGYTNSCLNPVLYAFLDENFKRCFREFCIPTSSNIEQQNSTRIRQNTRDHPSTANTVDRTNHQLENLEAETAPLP
In short: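 CHO-K1 membranes expressing human μ receptor (15-40 μg protein/250 μl) were incubated 90 min at room temperature with 1 nmol/l [³H]-naloxone and WGA-SPA beads in 50 mmol/l Tris-HCl with 0.06% BSA; 100 μmol/l naloxone defined nonspecific binding. Percent displacement measured at 1 μmol/l; IC50 converted to Ki via Cheng-Prusoff.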

Noradrenaline reuptake = target: T2, Noradrenaline reuptake (Rattus norvegicus, UniProt Q63380); assay: Inhibition of noradrenaline (NA) reuptake in rat brain synaptosomes; type: biochemical; details: synaptosomes from rat hypothalamus
T2 construct: synaptosomes are freshly isolated from areas of the rat brain; from tissue; host or cells: P2 synaptosome fraction from the hypothalamus of male rat brains
T2 sequence (Q63380 1-617): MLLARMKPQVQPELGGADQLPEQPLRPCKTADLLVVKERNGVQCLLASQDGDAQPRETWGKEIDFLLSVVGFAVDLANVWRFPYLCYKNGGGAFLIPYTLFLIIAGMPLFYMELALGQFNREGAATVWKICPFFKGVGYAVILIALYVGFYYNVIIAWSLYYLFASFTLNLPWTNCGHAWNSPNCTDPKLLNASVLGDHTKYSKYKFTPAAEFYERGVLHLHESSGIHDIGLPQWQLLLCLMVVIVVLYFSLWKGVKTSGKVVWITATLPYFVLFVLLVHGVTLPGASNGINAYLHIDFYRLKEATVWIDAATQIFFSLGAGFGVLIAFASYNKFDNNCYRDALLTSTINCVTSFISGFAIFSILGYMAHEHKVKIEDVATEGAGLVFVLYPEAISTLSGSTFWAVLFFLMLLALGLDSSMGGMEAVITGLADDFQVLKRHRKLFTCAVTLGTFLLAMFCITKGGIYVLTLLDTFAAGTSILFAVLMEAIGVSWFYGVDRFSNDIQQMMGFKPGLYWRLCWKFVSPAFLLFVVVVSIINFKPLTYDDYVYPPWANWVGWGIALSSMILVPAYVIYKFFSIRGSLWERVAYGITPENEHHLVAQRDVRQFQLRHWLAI
Protocol: (§1) In order to be able to carry out these in vitro studies, synaptosomes are freshly isolated from areas of the rat brain. In each case a so-called “P2” fraction prepared in accordance with the instruction of Gray and Whittaker (E. G. Gray and V. P. Whittaker (1962) J. Anat. 76, 79-88) is prepared. For the NA uptake, these vesicular particles are isolated from the hypothalamus of male rat brains.
(§2) A detailed description of the method can be found in the literature (M. Ch. Frink, H.-H. Hennies, W. Englberger, M. Haurand and B. Wilffert (1996) Arzneim.-Forsch./Drug Res. 46 (III), 11, 1029-1036).

Serotonin reuptake = target: T3, Serotonin reuptake (Rattus norvegicus, UniProt P31652); assay: Inhibition of serotonin (5HT) reuptake in rat brain synaptosomes; type: biochemical
T3 construct: synaptosomes are freshly isolated from areas of the rat brain; from tissue
T3 sequence (P31652 whole entry): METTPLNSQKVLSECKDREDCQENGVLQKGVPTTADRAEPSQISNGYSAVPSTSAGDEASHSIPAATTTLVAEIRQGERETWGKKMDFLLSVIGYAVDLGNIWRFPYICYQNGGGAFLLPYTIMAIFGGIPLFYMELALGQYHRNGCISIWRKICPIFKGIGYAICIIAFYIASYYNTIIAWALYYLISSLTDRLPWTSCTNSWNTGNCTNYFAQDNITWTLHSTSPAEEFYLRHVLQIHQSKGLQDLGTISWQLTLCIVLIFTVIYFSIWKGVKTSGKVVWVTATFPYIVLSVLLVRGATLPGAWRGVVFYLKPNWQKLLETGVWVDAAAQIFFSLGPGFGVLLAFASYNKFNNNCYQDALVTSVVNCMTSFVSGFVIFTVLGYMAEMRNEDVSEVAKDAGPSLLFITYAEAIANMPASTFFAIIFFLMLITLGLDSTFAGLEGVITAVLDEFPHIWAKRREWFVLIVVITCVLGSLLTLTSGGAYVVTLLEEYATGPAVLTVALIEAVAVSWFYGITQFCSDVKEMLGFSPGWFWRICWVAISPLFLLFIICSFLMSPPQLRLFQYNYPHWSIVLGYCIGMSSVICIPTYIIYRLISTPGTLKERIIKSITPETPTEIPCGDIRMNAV
Protocol: as §1, §2

Q: Which melting point does the source give for `Cc1ccc2[nH]c3c(c2c1)CC(C)OC31CCC(C(c2ccccc2)N(C)C)CC1` (centres unmarked) (as salt: citrate) [Compound 42, 3,6-Dimethyl-1,1-[3-(dimethylamino-(phenyl)-methyl)-pentamethylene]-1,3,4,9-tetrahydropyrano[3,4-b]indole Citrate] here?
A: 245 to 250 °C

Q: What does the source list for `CN(C)C(c1cccc(F)c1)C1CCC2(CC1)NCCc1c2[nH]c2ccccc12` (centres unmarked) [Compound 18, 1,1-[3-(Dimethylamino-(3-fluorophenyl)methyl)-pentamethylene]-3,4-dihydro-1H-2,9-diazafluorene]?
A: inhibition at 1 µM (human μ opiate receptor): 74%; Ki (human μ opiate receptor): 260 nM; melting point: 226 to 229 °C; inhibition at 10 µM (Noradrenaline reuptake): 58%; inhibition at 10 µM (Serotonin reuptake): 64%

Q: With `CN(C)C(c1ccccc1)C1CCC2(CC1)NCCc1c2[nH]c2ccccc12` (centres unmarked) [Compound 19, 1,1-[3-(Dimethylamino-phenylmethyl)-pentamethylene]-3,4-dihydro-1H-2,9-diazafluorene] as the compound, how does the inhibition at 1 µM (human μ opiate receptor) read?
A: 81%

Q: What about the Ki (human μ opiate receptor) of the same compound?
A: 180 nM

Q: And the melting point?
A: 182 to 184 °C

Q: And the inhibition at 10 µM (Noradrenaline reuptake)?
A: 65%

Q: And the inhibition at 10 µM (Serotonin reuptake)?
A: 91%
